In ChEMBL document CHEMBL3045299, “Chromano-analogs of Insecticidal Neolignans of the 1,4-Benzodioxane Type” (1993):

Test system: Musca domestica
Assay: Insecticidal activity against Musca domestica (house fly) assessed as mortality per fly pretreated with piperonyl butoxide measured after 24 hr
Assay type: functional

Compound	LD50 [µg]
COCC1Cc2cc([C@H]3OC[C@]4(O)[C@@H](Oc5c(OC)cccc5OC)OC[C@H]34)c(OC)cc2OC1c1ccc2c(c1)OCO2 (mixture of isomers)	1
COCC1Cc2cc([C@@H]3OC[C@]4(O)[C@@H](Oc5c(OC)cccc5OC)OC[C@H]34)c(OC)cc2OC1c1ccc2c(c1)OCO2 (mixture of isomers)	>10
COCC1Oc2cc([C@H]3OC[C@]4(O)[C@@H](Oc5c(OC)cccc5OC)OC[C@H]34)c(OC)cc2CC1c1ccc2c(c1)OCO2 (mixture of isomers)	0.005
COCC1Oc2cc([C@H]3OC[C@]4(O)[C@@H](Oc5ccc6c(c5)OCO6)OC[C@H]34)c(OC)cc2OC1c1ccc2c(c1)OCO2 (mixture of isomers)	0.18
COC[C@@H]1Oc2cc([C@H]3OC[C@]4(O)[C@@H](Oc5ccc6c(c5)OCO6)OC[C@H]34)c(OC)cc2O[C@H]1c1ccc2c(c1)OCO2 (racemic)	>5
COC[C@H]1Oc2cc([C@H]3OC[C@]4(O)[C@@H](Oc5c(OC)cc6c(c5OC)OCO6)OC[C@H]34)c(OC)cc2O[C@@H]1c1ccc2c(c1)OCO2 (racemic) [(+)-HAEDOXAN A]	0.00025
COC[C@H]1Oc2cc([C@H]3OC[C@]4(O)[C@@H](Oc5ccc6c(c5)OCO6)OC[C@H]34)c(OC)cc2O[C@@H]1c1ccc2c(c1)OCO2 (racemic) [(+)-HAEDOXAN E]	0.1
COC[C@H]1Oc2cc([C@H]3OC[C@]4(O)[C@@H](Oc5ccc6c(c5)OCO6)OC[C@H]34)c(OC)cc2O[C@@H]1c1ccc2c(c1)OCO2 [(+)-HAEDOXAN E]	0.05
